In ChEMBL document CHEMBL4138079, “New cycloartane type-triterpenoids from the areal parts of Caragana sukiensis and their biological activities” (Eur J Med Chem, 2017):
Active and inactive are the calls of the source. No cut-off for these calls is given here.

Tests used:
[1] = system: A549; assay: Cell cycle arrest in human A549 cells assessed as G0/G1 phase accumulation at 1 uM after 48 hrs by propidium iodide staining based FACS analysis (reference value: 77.91%); type: functional
[2] = system: Spodoptera litura; assay: Antifeedant activity in Spodoptera litura third-instar larvae assessed as larval duration time after 24 hrs by leaf disk method (reference value: 10.1 +/- 0.1 day); type: functional
[3] = system: A549; assay: Induction of apoptosis in human A549 cells assessed as cell population with intact mitochondrial membrane potential at 1 uM measured after 48 hrs by JC-1 staining based flow cytometry (reference value: 37.5%); type: functional
[4] = system: A549; assay: Cell cycle arrest in human A549 cells assessed as G0/G1 phase accumulation at 2 uM after 48 hrs by propidium iodide staining based FACS analysis (reference value: 77.91%); type: functional
[5] = system: HeLa; assay: Cytotoxicity against human HeLa cells assessed as reduction in cell viability after 48 hrs by MTT assay; type: functional, cell-based
[6] = system: A549; assay: Cell cycle arrest in human A549 cells assessed as G0/G1 phase accumulation after 48 hrs by propidium iodide staining based FACS analysis; type: functional
[7] = system: Spodoptera litura; assay: Antifeedant activity in Spodoptera litura assessed as pupal mortality after 24 hrs by leaf disk method (reference value: 0%); type: functional
[8] = system: A549; assay: Induction of apoptosis in human A549 cells assessed as late apoptotic cells at 2 uM after 48 hrs by Annexin V-FITC/propidium iodide staining based flow cytometry (reference value: 5.19%); type: functional
[9] = system: A549; assay: Induction of apoptosis in human A549 cells assessed as live cells at 1 uM after 48 hrs by Annexin V-FITC/propidium iodide staining based flow cytometry (reference value: 91.22%); type: functional
[10] = system: A549; assay: Cytotoxicity against human A549 cells assessed as reduction in cell viability after 48 hrs by MTT assay; type: functional, cell-based; conditions: A549, 48 h
[11] = system: Spodoptera litura; assay: Antifeedant activity in Spodoptera litura third-instar larvae assessed as increase in feeding deterrence by measuring antifeedant index at 5 ug/cm2 after 24 hrs by leaf disk method; type: functional
[12] = system: Spodoptera litura; assay: Insecticidal activity in Spodoptera litura third-instar larvae assessed as larval mortality at 5 ug/cm2 after 24 hrs by leaf disk method relative to control; type: functional; conditions: foliar
[13] = system: A549; assay: Cell cycle arrest in human A549 cells assessed as S phase accumulation at 2 uM after 48 hrs by propidium iodide staining based FACS analysis (reference value: 2.45%); type: functional
[14] = system: Spodoptera litura; assay: Antifeedant activity in Spodoptera litura third-instar larvae assessed as increase in feeding deterrence after 24 hrs by leaf disk method; type: functional
[15] = system: A549; assay: Induction of apoptosis in human A549 cells assessed as morphological change at 1 uM after 48 hrs by Hoechst 33258 staining based fluorescence microscopic analysis; type: functional, cell-based
[16] = system: A549; assay: Induction of apoptosis in human A549 cells assessed as live cells at 2 uM after 48 hrs by Annexin V-FITC/propidium iodide staining based flow cytometry (reference value: 91.22%); type: functional
[17] = system: A549; assay: Cell cycle arrest in human A549 cells assessed as sub G1 phase accumulation at 1 uM after 48 hrs by propidium iodide staining based FACS analysis (reference value: 0.96%); type: functional
[18] = system: Spodoptera litura; assay: Antifeedant activity in Spodoptera litura assessed as pupal weight after 24 hrs by leaf disk method (reference value: 0.245 +/- 0.02 g); type: functional
[19] = system: A549; assay: Induction of apoptosis in human A549 cells assessed as early apoptotic cells at 1 uM after 48 hrs by Annexin V-FITC/propidium iodide staining based flow cytometry (reference value: 3.24%); type: functional
[20] = system: A549; assay: Induction of apoptosis in human A549 cells assessed as late apoptotic cells at 1 uM after 48 hrs by Annexin V-FITC/propidium iodide staining based flow cytometry (reference value: 5.19%); type: functional
[21] = system: DU-145; assay: Cytotoxicity against human DU145 cells assessed as reduction in cell viability after 48 hrs by MTT assay; type: functional, cell-based; conditions: DU-145, 48 h
[22] = system: A549; assay: Induction of apoptosis in human A549 cells assessed as necrotic cells at 1 uM after 48 hrs by Annexin V-FITC/propidium iodide staining based flow cytometry (reference value: 0.35%); type: functional
[23] = system: A549; assay: Cell cycle arrest in human A549 cells assessed as G2/M phase accumulation at 1 uM after 48 hrs by propidium iodide staining based FACS analysis (reference value: 16.81%); type: functional
[24] = system: A549; assay: Cell cycle arrest in human A549 cells assessed as S phase accumulation at 1 uM after 48 hrs by propidium iodide staining based FACS analysis (reference value: 2.45%); type: functional
[25] = system: A549; assay: Cell cycle arrest in human A549 cells assessed as sub G1 phase accumulation at 2 uM after 48 hrs by propidium iodide staining based FACS analysis (reference value: 0.96%); type: functional
[26] = system: A549; assay: Induction of apoptosis in human A549 cells assessed as early apoptotic cells at 2 uM after 48 hrs by Annexin V-FITC/propidium iodide staining based flow cytometry (reference value: 3.24%); type: functional
[27] = system: A549; assay: Induction of apoptosis in human A549 cells assessed as necrotic cells at 2 uM after 48 hrs by Annexin V-FITC/propidium iodide staining based flow cytometry (reference value: 0.35%); type: functional
[28] = system: A549; assay: Induction of apoptosis in human A549 cells assessed as cell population with intact mitochondrial membrane potential at 2 uM measured after 48 hrs by JC-1 staining based flow cytometry (reference value: 37.5%); type: functional
[29] = system: MCF7; assay: Cytotoxicity against human MCF7 cells assessed as reduction in cell viability after 48 hrs by MTT assay; type: functional, cell-based; conditions: MCF7, 48 h
[30] = system: A549; assay: Cell cycle arrest in human A549 cells assessed as G2/M phase accumulation at 2 uM after 48 hrs by propidium iodide staining based FACS analysis (reference value: 16.81%); type: functional
[31] = system: A549; assay: Induction of apoptosis in human A549 cells assessed as cell population with mitochondrial membrane potential loss at 2 uM measured after 48 hrs by JC-1 staining based flow cytometry (reference value: 27.4%); type: functional
[32] = system: A549; assay: Induction of apoptosis in human A549 cells after 48 hrs by Annexin V-FITC/propidium iodide staining based flow cytometry; type: functional, cell-based
[33] = system: A549; assay: Induction of apoptosis in human A549 cells assessed as cell population with mitochondrial membrane potential loss at 1 uM measured after 48 hrs by JC-1 staining based flow cytometry (reference value: 27.4%); type: functional
[34] = system: HEK293; assay: Cytotoxicity against human HEK293 cells assessed as reduction in cell viability after 48 hrs by MTT assay; type: cell-based; conditions: HEK293, 48 h

CC(C)(O)[C@@H]1CC[C@](C)([C@H]2[C@@H](O)C[C@@]3(C)[C@@H]4C[C@H](O)[C@H]5C(C)(C)[C@@H](O)CC[C@@]56C[C@@]46CC[C@]23C)O1
Activity [1]: 82.05% | Time [2]: 14.2 days | Activity [3]: 39.6% | Activity [4]: 90.47% | IC50 [5]: 2200 nM | Activity [6]: Dose-dependent effect | mortality [7]: 89.6% | Activity [8]: 23.83% | Activity [9]: 83.55% | IC50 [10]: 1540 nM | Activity_index [11]: 59.9 | mortality at 5 µg/cm2 [12]: 11.8% | Activity [13]: 0.87% | ED50 [14]: 11.96 microg/cm2 | Activity [15]: Active | Activity [16]: 71.07% | Activity [17]: 0.4% | Activity [18]: 0.199 g | Activity [19]: 4.17% | Activity [20]: 11.31% | IC50 [21]: 7260 nM | Activity [22]: 0.96% | Activity [23]: 14.45% | Activity [24]: 2.41% | Activity [25]: 0.84% | Activity [26]: 3.94% | Activity [27]: 1.16% | Activity [28]: 38.6% | IC50 [29]: 1780 nM | Activity [30]: 7.29% | Activity [31]: 31.1% | Activity [32]: Dose-dependent effect | Activity [33]: 29% | IC50 [34]: 128000 nM
